From US8192962B2, “Processes for detecting toxic substances” (Daikin Industries, Ltd., priority 2001, dated 2012)

System: Stress protein genes
Assay: DNA chip mRNA expression in yeast, stress protein genes (Table 6)
Format: cell-based, Saccharomyces cerevisiae S288C
Protocol: Yeast (Saccharomyces cerevisiae S288C (α SUC2mal mel gap2 CUP1)) were incubated at 25° C. on YPD medium (yeast extract 1%, polypepton 2%, glucose 2%). One of toxic chemical substances was added to the cells at logarithmic growth phase, and the cells were further incubated for two hours. Cells were cultured without any chemical substance in the same condition, and were used as control. Concentrations of the chemical substances were defined to inhibit the growth of the yeast but not lead to death.
After completion of the incubation, the culture was centrifuged to collect the cells. To the cells, sodium acetate buffer (50 mM sodium acetate, 10 mM EDTA, 1% SDS) was added, and the mixture was shaken at 65° C. for five minutes, followed by returning to room temperature, and obtaining the supernatant, of which the procedures were repeated two times. To the supernatant, ½ amount of a solution of phenol/chloroform was added, and the mixture was centrifuged to give a supernatant, which was added with an equal amount of chloroform, and the mixture was centrifuged to give a supernatant. To the supernatant, an equal amount of isopropanol containing 0.3 M sodium acetate was added, and the mixture was allowed to stand at room temperature for 30 minutes, after which the mixture was centrifuged to give a sediment of the whole RNAs. Seventy % ethanol was added to the sediment, and the mixture was again centrifuged to give a sediment, which was then dried and dissolved in water. mRNA was isolated from the whole RNAs as followings. In view of the fact that a poly A chain is attached to the 3′ terminus of mRNA, a polynucleotide having a poly T structure which was immobilized on the surface of latex beads was used to trap the mRNA, and then the mRNA was washed and eluted with spine column (Oligotex-dT30<Super>mRNA Purification Kit, Takara). Reverse transcription of the mRNA was conducted with a reverse transcriptase (Super Script II Reverse Transcriptase; catalogue No. 18064-014, GibcoBRL) using fluorescence-labeled nucleotides to give cDNAs that were introduced with Cy3-dUTP or Cy5-dUTP during the reverse transcription.
The labeled cDNAs were dissolved in TE buffer (10mM Tris-HCl/1 mM EDTA, pH8.0), and the solution was dropped on the DNA chip containing the whole genes of yeast (DNA Chip Research Inc. Japan) so that the cDNAs were hybridized on the DNA chip at 65° C. for over 12 hours. The fluoresces intensity of the DNA chip was read with a scanner, and the ratio relative to the fluorescence intensity resulting from the absence of chemical substance was estimated as the following, which is shown in Tables 1 to 9: […]

CN(C)C(=S)SSC(=S)N(C)C [(10), Tetramethylthiuram disulfide]
The level of expressed mRNA in the presence of chemical substance/The level of expressed mRNA in the absence of chemical substance (yeast gene YIL033C): 1.3
The level of expressed mRNA in the presence of chemical substance/The level of expressed mRNA in the absence of chemical substance (yeast gene YIR037W): 3.8
The level of expressed mRNA in the presence of chemical substance/The level of expressed mRNA in the absence of chemical substance (yeast gene YIR038C): 4.5
The level of expressed mRNA in the presence of chemical substance/The level of expressed mRNA in the absence of chemical substance (yeast gene YJL128C): 1.7
The level of expressed mRNA in the presence of chemical substance/The level of expressed mRNA in the absence of chemical substance (yeast gene YJL158C): 0.5
The level of expressed mRNA in the presence of chemical substance/The level of expressed mRNA in the absence of chemical substance (yeast gene YJL159W): 1.2
The level of expressed mRNA in the presence of chemical substance/The level of expressed mRNA in the absence of chemical substance (yeast gene YJL165C): 1.0
The level of expressed mRNA in the presence of chemical substance/The level of expressed mRNA in the absence of chemical substance (yeast gene YJR045C): 3.0
The level of expressed mRNA in the presence of chemical substance/The level of expressed mRNA in the absence of chemical substance (yeast gene YJR090C): 1.2
The level of expressed mRNA in the presence of chemical substance/The level of expressed mRNA in the absence of chemical substance (yeast gene YKL161C): 1.7
The level of expressed mRNA in the presence of chemical substance/The level of expressed mRNA in the absence of chemical substance (yeast gene YKL163W): 1.6
The level of expressed mRNA in the presence of chemical substance/The level of expressed mRNA in the absence of chemical substance (yeast gene YKL164C): 0.7
The level of expressed mRNA in the presence of chemical substance/The level of expressed mRNA in the absence of chemical substance (yeast gene YKL210W): 2.9
The level of expressed mRNA in the presence of chemical substance/The level of expressed mRNA in the absence of chemical substance (yeast gene YKR053C): 1.8
The level of expressed mRNA in the presence of chemical substance/The level of expressed mRNA in the absence of chemical substance (yeast gene YLL024C): 2.4
The level of expressed mRNA in the presence of chemical substance/The level of expressed mRNA in the absence of chemical substance (yeast gene YLL026W): 6.6
The level of expressed mRNA in the presence of chemical substance/The level of expressed mRNA in the absence of chemical substance (yeast gene YLL039C): 1.5
The level of expressed mRNA in the presence of chemical substance/The level of expressed mRNA in the absence of chemical substance (yeast gene YLL060C): 23.2
The level of expressed mRNA in the presence of chemical substance/The level of expressed mRNA in the absence of chemical substance (yeast gene YLR006C): 1.1
The level of expressed mRNA in the presence of chemical substance/The level of expressed mRNA in the absence of chemical substance (yeast gene YLR109W): 2.7
The level of expressed mRNA in the presence of chemical substance/The level of expressed mRNA in the absence of chemical substance (yeast gene YLR259C): 2.6
The level of expressed mRNA in the presence of chemical substance/The level of expressed mRNA in the absence of chemical substance (yeast gene YML007W): 2.5
The level of expressed mRNA in the presence of chemical substance/The level of expressed mRNA in the absence of chemical substance (yeast gene YML070W): 3.9
The level of expressed mRNA in the presence of chemical substance/The level of expressed mRNA in the absence of chemical substance (yeast gene YMR021C): 1.3
The level of expressed mRNA in the presence of chemical substance/The level of expressed mRNA in the absence of chemical substance (yeast gene YMR173W): 8.2
The level of expressed mRNA in the presence of chemical substance/The level of expressed mRNA in the absence of chemical substance (yeast gene YMR186W): 1.3
The level of expressed mRNA in the presence of chemical substance/The level of expressed mRNA in the absence of chemical substance (yeast gene YNL064C): 1.8
The level of expressed mRNA in the presence of chemical substance/The level of expressed mRNA in the absence of chemical substance (yeast gene YNL160W): 2.7
The level of expressed mRNA in the presence of chemical substance/The level of expressed mRNA in the absence of chemical substance (yeast gene YNL241C): 7.4
The level of expressed mRNA in the presence of chemical substance/The level of expressed mRNA in the absence of chemical substance (yeast gene YNR076W): 2.5
The level of expressed mRNA in the presence of chemical substance/The level of expressed mRNA in the absence of chemical substance (yeast gene YOL064C): 2.7
The level of expressed mRNA in the presence of chemical substance/The level of expressed mRNA in the absence of chemical substance (yeast gene YOL161C): 2.0
The level of expressed mRNA in the presence of chemical substance/The level of expressed mRNA in the absence of chemical substance (yeast gene YOR008C): 1.0
The level of expressed mRNA in the presence of chemical substance/The level of expressed mRNA in the absence of chemical substance (yeast gene YOR009W): 0.5
The level of expressed mRNA in the presence of chemical substance/The level of expressed mRNA in the absence of chemical substance (yeast gene YOR010C): 0.7
The level of expressed mRNA in the presence of chemical substance/The level of expressed mRNA in the absence of chemical substance (yeast gene YOR027W): 4.0
The level of expressed mRNA in the presence of chemical substance/The level of expressed mRNA in the absence of chemical substance (yeast gene YOR208W): 2.0
The level of expressed mRNA in the presence of chemical substance/The level of expressed mRNA in the absence of chemical substance (yeast gene YPL059W): 1.3
The level of expressed mRNA in the presence of chemical substance/The level of expressed mRNA in the absence of chemical substance (yeast gene YPL106C): 1.8
The level of expressed mRNA in the presence of chemical substance/The level of expressed mRNA in the absence of chemical substance (yeast gene YPL140C): 0.9
The level of expressed mRNA in the presence of chemical substance/The level of expressed mRNA in the absence of chemical substance (yeast gene YPL194W): 3.1
The level of expressed mRNA in the presence of chemical substance/The level of expressed mRNA in the absence of chemical substance (yeast gene YPL223C): 16.5
The level of expressed mRNA in the presence of chemical substance/The level of expressed mRNA in the absence of chemical substance (yeast gene YPL240C): 2.6
The level of expressed mRNA in the presence of chemical substance/The level of expressed mRNA in the absence of chemical substance (yeast gene YPR005C): 2.0
The level of expressed mRNA in the presence of chemical substance/The level of expressed mRNA in the absence of chemical substance (yeast gene YPR026W): 3.1
